The record followed here is patent US20250000876A1, “Novel therapeutic agent for inflammatory disease” (Gachon University of Industry-Academic cooperation …, priority 2020, published 2025).

In one data set the test system is M1-activated FLS. As to the kind of experiment: Cytokine expression in FLSs activated with M1 macrophage conditioned medium. The format is cell-based, human. The method, then:
(§1) To measure cytokine expression, RT-PCR (CFX 384, Bio-Rad, Hercules, CA, USA) was performed according to the manufacturer's protocol. […] Then, total RNA was isolated from cells (5×10^5 cells/well in a total of 6-well plates) using TRIzol (15596018, Thermo Fisher Scientific) and first strand complementary DNA (cDNA) using RT premix (Promega) was synthesized. Reverse transcription conditions were carried out at 45° C. for 60 minutes and at 95° C. for 5 minutes. Briefly, in each final reaction tube, 2 μL of cDNA (1 μg), 1 μL of sense and antisense primer solutions (0.4 μM), 12.5 μL of SYBR Premix Ex Taq (Takara Bio Inc.) and 9.5 μL of dH2O. The cycle threshold (Ct) value was calculated using the CFX96 Real-Time PCR Detection System (Bio-Rad) software, and the comparative Ct method (2ΔΔCt model) was used to calculate the relative fold change of gene expression. It was then normalized to mean GAPDH expression.
Recently, the role of macrophages in inflamed synovial membranes has been of great interest due to the inflammatory effects of these cells during pathogens of RA and OA in joints (A. Kennedy et al., Front. Immunol., 2:52, 2011). The present inventors therefore investigated the stimulation of FLS pro-inflammatory activity by activated M1 macrophage cytokines (from LPS-treated J774 cells to conditioned medium).

In the next data set the test system is CIA-induced mice. As to the kind of experiment: Collagen-induced arthritis (CIA) model. The format is in vivo, DBA/1 mice. Particulars: for paw edema and paw score: ankle joint, 48 days. On the procedure: DBA/1 mice (male, 4-6 weeks old, body weight 20-25 g) were purchased from Orient Bio (Seoul, Korea) and the mice were subjected to a 12-hour light/dark cycle (lit at 6:30 AM) for 7-14 days. They were placed in a specific pathogen-free environment with temperature and humidity controlled and acclimatized before the experiment. All animal experiments were performed according to the Gachon University Laboratory Animal Care and Use Guide. […] Animals with […] arthritis were randomly assigned to 6 groups (n=6) after the first signs of inflammation were observed on day 27.
The status of RA was assessed visually by grading paw swelling according to the following criteria: 0, no swelling; 1, inflammation and swelling in one toe; 2, more than one toe, but inflammation and swelling throughout the foot; 3, moderate swelling of the entire foot; 4, Severe erythema and swelling of the entire foot and ankle (H. E. Scales, et al., Rheumatology (Oxford) 55 (3): 564-572, 2016). A total score of four paws was recorded for each mouse as the arthritis index. […] Each treatment group was administered twice weekly for 3 weeks, 2 mg/kg or 5 mg/kg condition, and the arthritis index of each group was recorded over time. After 3 weeks of treatment, mice were sacrificed, and limbs were collected and histological analysis was performed.
Histopathology was evaluated to determine the characteristics of RA including macrophage phenotype, synovitis and cartilage destruction. Specifically, on day 48, the mice were sacrificed and the ankle joint was recovered. The […] was fixed in 4% paraformaldehyde at 4° C. for 3 days, transferred to a descaling solution (Sigma), and left on an orbital shaker. Then, the tissue was decalcified at room temperature for 14 days, and the non-calcified ankle joint was embedded in paraffin and then cut into 3 μm using a microtome. For immunofluorescence histochemistry, tissue sections were dewaxed and TNF-α (Abcam, ab1793), IL-1β (Abcam, ab9722), IL-6 (Abcam, ab7737), INF-γ (Novus Biotech, NBP1), CD86 (Invitrogen, 13-0862-82), and Dectin-1 (Abcam, ab140039) were stained with primary antibodies. The secondary antibodies used in the present invention are goat anti-rat Alexa Fluor 488 (Abcam) for INF-γ, goat anti-mouse Alexa Fluor 488 (Abcam) for TNF-α, goat anti-mouse Alexa Fluor 568 for CD86 (Abcam), goat anti-rabbit Alexa Fluor 488 (Abcam) for IL-1β and IL-6 and goat anti-rabbit Alexa Fluor 568 (Abcam) for Dectin-1. The tissue sections were then stained with DAPI mounting solution and observed using a confocal fluorescence microscope (LSM700, Carl Zeiss) and EVOS M7000, Invitrogen. Fluorescence intensity was also quantified using ImageJ, Zen Lite (Zeiss) and Celleste (Invitrogen).

Data set [1] can be described thus: H2O2 decomposition and O2 production analysis. Particulars: after 24 hours, pH 7.4. The method, then:
Then, 50 μl of the solution was added to a solution of 100 μL of Ti (SO4)2 containing 1.33 mL of 24% Ti(SO4)2 and 8.33 mL of H2SO4 in 50 mL of deionized water after 24 hours. After the reaction was completed, the absorbance of the solution was measured at 405 nm to evaluate the H2O2 concentration.
We performed H2O2-scavenging effect of AuNPs and intracellular ROS analysis before pro-inflammatory cytokine secretion assay. Specifically, after treatment with Triamcinolone and AuNPs under physiological conditions (pH 7.4), concentration of H2O2 was analyzed.

Data set [2] can be described thus: Hydrodynamic size distribution, potential and polydispersity index (Zetasizer Nano). The data set is classed as physicochemical.
Data set [3] concerns macrophages treated with TNF-α-activated FLSs medium. Description: Macrophage repolarization after TNF-α-activated FLSs medium. The data set is classed as cell-based. On the procedure:
as §1
Macrophages of the synovium can stimulate pro-inflammatory FLSs activity by infiltrating inflamed tissues and increasing pro-inflammatory cytokine levels (M. Asif Amin et al., Semin. Immunopathol., 39 (4): 385-393, 2017). For this reason, modulating macrophage differentiation (ie, repolarization) is important in alleviating arthritis disease (J. Kim et al., ACS Nano, 13 (3): 3206-3217, 2019).

For `C[C@]12C=CC(=O)C=C1CC[C@H]1[C@@H]3C[C@@H](O)[C@](O)(C(=O)CO)[C@@]3(C)C[C@H](O)[C@@]12F` [Triam, Triamcinolone], the “level of FLSs pro-inflammatory cytokines (TNF-α, IL-1β and IL-6)” value in the data set on M1-activated FLS (FLSs treated with M1 medium) is “effectively reduced”. Besides, the “anti-inflammatory mRNA (IL-4, IL-10 and Arg-1) synthesis” value with M1-activated FLS (M1-activated FLS) is “did not induce anti-inflammatory cytokine release”. For the same molecule, in the data set with CIA-induced mice (2 mg/kg), the “level of CD86 (M1 marker) in ankle joint” value was “reduced the level of the M1 marker”; the “level of Dectin-1 (M2 marker) in ankle joint” value was “did not sufficiently restore the level of the M2 marker”; the “paw edema and paw score” value is listed as “did not show sufficient effect”. Moreover, in the data set on CIA-induced mice (5 mg/kg), the “level of CD86 (M1 marker) in ankle joint” value is given as “reduced the level of the M1 marker”; the “level of Dectin-1 (M2 marker) in ankle joint” value is listed as “did not sufficiently restore the level of the M2 marker”; the “paw edema and paw score” value is listed as “did not show sufficient effect”. Besides, the “reduction of H2O2 concentration” value in data set [1] is on record as “about 48%”. For the same molecule, in data set [2] (Example 1, Triam series), the “electric potential caused by the surface charge” value was “approached neutral charges” and the hydrodynamic size came out at 75 nm. For the same molecule, in data set [3], the “M2 response (IL-4, Arg-1 and IL-10 expression)” value is listed as “did not induce noticeable M2 marker expression”; the “inflammatory marker levels (TNF-α, IL-1β and IL-6 expression)” value is recorded as “decreased significantly”.

With `C[C@@H]1C[C@H]2[C@@H]3CCC4=CC(=O)C=C[C@]4(C)[C@@]3(F)[C@@H](O)C[C@]2(C)[C@@]1(O)C(=O)CO` [free Dex, dexamethasone], in data set [2] (Example 9, Dex series), the “electric potential caused by the surface charge” value is recorded as “neutrally charged” and the hydrodynamic size was determined as 125 nm.
